Experimental data from ChEMBL document CHEMBL1134339, “New 1-aryl-3-(4-arylpiperazin-1-yl)propane derivatives, with dual action at 5-HT1A serotonin receptors and serotonin transporter, as a new class of antidepressants” (J Med Chem, 2001).

Key:
Mus musculus [1] = experiment: Time-dependent effect on 8-OH-DPAT-induced hypothermia (change in body temperature) after 60 min, in mice at 0.1 mg/kg dose; type: functional
Mus musculus [2] = experiment: Effect on immobility time in the forced swimming test (FST) in mice at 0 mg/kg dose; type: functional
Mus musculus [3] = experiment: Time-dependent effect on 8-OH-DPAT-induced hypothermia (change in body temperature) after 60 min, in mice at 5 mg/kg dose; type: functional
Mus musculus [4] = experiment: Time-dependent effect on 8-OH-DPAT-induced hypothermia (change in body temperature) after 60 min, in mice at 0.5 mg/kg dose; type: functional
Mus musculus [5] = experiment: Effect on immobility time in the forced swimming test (FST) in mice at 1 mg/kg dose; type: functional
Rattus norvegicus [6] = experiment: Effect on helpless behavior in rats and the number of escape failures was determined in shuttle-box session-2 (SB-2) at 1 mg/kg dose; type: functional
[7] = target: T1, 5-hydroxytryptamine receptor 1A (Homo sapiens) (UniProt P08908); conditions: HeLa
T1 sequence (whole entry): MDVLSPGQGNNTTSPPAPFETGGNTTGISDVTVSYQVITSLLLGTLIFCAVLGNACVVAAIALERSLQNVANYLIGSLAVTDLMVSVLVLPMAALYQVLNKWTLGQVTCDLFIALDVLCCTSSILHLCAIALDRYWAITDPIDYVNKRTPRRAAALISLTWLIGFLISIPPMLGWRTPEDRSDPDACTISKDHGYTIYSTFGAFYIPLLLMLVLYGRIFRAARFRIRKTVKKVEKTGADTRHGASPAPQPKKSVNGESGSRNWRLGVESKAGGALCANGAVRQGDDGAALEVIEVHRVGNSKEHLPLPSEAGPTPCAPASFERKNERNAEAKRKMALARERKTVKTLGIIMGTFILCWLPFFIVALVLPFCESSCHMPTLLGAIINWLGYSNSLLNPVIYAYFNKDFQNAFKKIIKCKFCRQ

[8] = target: T2, Adrenergic receptor alpha-1 (Rattus norvegicus, UniProt P15823+P23944+P43140); experiment: Affinity towards alpha-1 adrenergic receptor from rat cortex using [3H]prazosin radioligand (For prazosin Ki(nM)= […]+/-[…])
T2 sequence (P15823 whole entry): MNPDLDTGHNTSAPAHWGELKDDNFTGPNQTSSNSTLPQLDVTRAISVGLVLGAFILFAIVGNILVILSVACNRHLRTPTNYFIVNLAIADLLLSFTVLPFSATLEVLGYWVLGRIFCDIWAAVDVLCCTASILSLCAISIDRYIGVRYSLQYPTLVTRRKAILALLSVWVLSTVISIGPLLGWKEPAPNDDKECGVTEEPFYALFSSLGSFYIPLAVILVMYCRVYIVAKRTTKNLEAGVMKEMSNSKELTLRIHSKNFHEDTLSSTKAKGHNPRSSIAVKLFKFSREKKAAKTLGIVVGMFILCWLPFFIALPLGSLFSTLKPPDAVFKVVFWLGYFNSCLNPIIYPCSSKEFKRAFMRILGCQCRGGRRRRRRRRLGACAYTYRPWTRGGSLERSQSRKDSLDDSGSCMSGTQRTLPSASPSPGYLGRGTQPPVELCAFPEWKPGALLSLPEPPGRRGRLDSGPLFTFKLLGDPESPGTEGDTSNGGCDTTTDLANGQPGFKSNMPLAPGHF
T2 sequence (P23944 whole entry): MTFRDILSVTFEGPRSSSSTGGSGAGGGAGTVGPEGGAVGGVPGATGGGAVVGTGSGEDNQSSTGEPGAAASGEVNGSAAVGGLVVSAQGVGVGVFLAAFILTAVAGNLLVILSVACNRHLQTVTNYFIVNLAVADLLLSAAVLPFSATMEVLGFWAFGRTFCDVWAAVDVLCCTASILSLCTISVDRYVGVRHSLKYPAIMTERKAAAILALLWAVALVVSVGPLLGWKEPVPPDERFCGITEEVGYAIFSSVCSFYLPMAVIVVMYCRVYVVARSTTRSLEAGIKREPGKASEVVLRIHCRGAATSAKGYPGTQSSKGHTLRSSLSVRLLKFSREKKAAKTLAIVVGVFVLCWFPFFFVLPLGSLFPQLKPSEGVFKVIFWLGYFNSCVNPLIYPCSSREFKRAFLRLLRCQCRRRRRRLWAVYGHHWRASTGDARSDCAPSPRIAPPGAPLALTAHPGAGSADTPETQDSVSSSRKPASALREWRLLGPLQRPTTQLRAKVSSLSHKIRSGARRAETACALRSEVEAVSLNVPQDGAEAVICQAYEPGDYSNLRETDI
T2 sequence (P43140 whole entry): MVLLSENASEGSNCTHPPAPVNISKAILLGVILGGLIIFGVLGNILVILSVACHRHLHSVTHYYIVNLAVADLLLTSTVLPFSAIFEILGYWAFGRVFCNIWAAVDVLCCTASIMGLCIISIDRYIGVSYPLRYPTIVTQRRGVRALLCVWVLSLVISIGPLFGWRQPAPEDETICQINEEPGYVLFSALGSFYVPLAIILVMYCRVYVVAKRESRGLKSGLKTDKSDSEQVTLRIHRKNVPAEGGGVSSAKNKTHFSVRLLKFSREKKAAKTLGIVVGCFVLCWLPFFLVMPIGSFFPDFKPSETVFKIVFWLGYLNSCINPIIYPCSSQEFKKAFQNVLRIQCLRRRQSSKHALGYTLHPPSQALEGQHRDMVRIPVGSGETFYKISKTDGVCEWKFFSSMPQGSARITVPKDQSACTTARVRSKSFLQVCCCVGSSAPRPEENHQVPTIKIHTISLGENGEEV

Mus musculus [9] = experiment: Effect on immobility time in the forced swimming test (FST) in mice at 0.1 mg/kg dose; type: functional
Rattus norvegicus [10] = experiment: Effect on helpless behavior in rats and the number of escape failures was determined in shuttle-box session-1 (SB-1) at 1 mg/kg dose; type: functional
Mus musculus [11] = experiment: Time-dependent effect on 8-OH-DPAT-induced hypothermia (change in body temperature) after 30 min, in mice at 0.1 mg/kg dose; type: functional
Mus musculus [12] = experiment: Time-dependent effect on 8-OH-DPAT-induced hypothermia (change in body temperature) after 15 min, in mice at 0.5 mg/kg dose; type: functional
Mus musculus [13] = experiment: Time-dependent effect on 8-OH-DPAT-induced hypothermia (change in body temperature) after 30 min, in mice at 0.5 mg/kg dose; type: functional
Mus musculus [14] = experiment: Time-dependent effect on 8-OH-DPAT-induced hypothermia (change in body temperature) after 15 min, in mice at 5 mg/kg dose; type: functional
Mus musculus [15] = experiment: Time-dependent effect on 8-OH-DPAT-induced hypothermia (change in body temperature) after 15 min, in mice at 0.1 mg/kg dose; type: functional
Mus musculus [16] = experiment: Effect on immobility time in the forced swimming test (FST) in mice at 10 mg/kg dose; type: functional
[17] = target: Sodium-dependent serotonin transporter (Rattus norvegicus, UniProt P31652); experiment: Binding affinity towards Serotonin transporter from rat cortex measured using [3H]paroxetine; conditions: read-out: Ki
Chain of Sodium-dependent serotonin transporter (P31652 whole entry): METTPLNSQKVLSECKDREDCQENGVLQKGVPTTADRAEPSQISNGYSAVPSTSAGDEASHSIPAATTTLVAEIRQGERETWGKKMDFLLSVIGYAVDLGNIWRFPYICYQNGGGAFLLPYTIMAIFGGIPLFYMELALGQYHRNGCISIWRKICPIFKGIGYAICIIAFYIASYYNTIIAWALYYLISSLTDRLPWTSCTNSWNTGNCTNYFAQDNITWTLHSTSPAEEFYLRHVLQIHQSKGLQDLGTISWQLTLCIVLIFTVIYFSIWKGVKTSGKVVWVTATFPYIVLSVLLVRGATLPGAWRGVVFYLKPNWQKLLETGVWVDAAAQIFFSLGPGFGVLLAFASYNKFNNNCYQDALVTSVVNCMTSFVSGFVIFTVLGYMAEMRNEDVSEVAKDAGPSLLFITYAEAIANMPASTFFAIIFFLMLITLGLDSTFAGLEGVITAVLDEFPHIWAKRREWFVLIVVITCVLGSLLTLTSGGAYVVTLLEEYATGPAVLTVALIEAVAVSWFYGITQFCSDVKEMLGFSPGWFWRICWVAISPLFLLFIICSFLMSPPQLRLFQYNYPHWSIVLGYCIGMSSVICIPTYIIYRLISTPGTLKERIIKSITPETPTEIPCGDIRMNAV

cAMP [7] [pmol/well]	Ki [8] [nM]	Ki [17] [nM]	Structure (SMILES)	Temperature change (Mus musculus [1]) [°C]	Immobility time (Mus musculus [2]) [s]	Temperature change (Mus musculus [3]) [°C]	Temperature change (Mus musculus [4]) [°C]	Immobility time (Mus musculus [5]) [s]	No. of escape failures (Rattus norvegicus [6])	Immobility time (Mus musculus [9]) [s]	No. of escape failures (Rattus norvegicus [10])	Temperature change (Mus musculus [11]) [°C]	Temperature change (Mus musculus [12]) [°C]	Temperature change (Mus musculus [13]) [°C]	Temperature change (Mus musculus [14]) [°C]	Temperature change (Mus musculus [15]) [°C]	Immobility time (Mus musculus [16]) [s]
< 20.8	6	105	COc1ccccc1N1CCN(CCC(=O)c2csc3ccccc23)CC1	-1.13	169.4	-1.27	<-0.47	<77.1	<4	141.4	<9.8	-1.66	<-1.58	<-0.86	-2.53	-2.14	<86.6
< 15.4	135	150	COc1ccccc1N1CCN(CCC(Oc2cccc3ccccc23)c2ccsc2)CC1 (stereo unspecified)	-1.16	157.1	-1.22	-0.52	<91.6	1.3	194.4	5.8	-1.54	-1.72	-1.35	-2.73	-2.12	<91.1

Structure (SMILES)	cAMP [7] [pmol/well]	Ki [8] [nM]	Ki [17] [nM]	Temperature change (Mus musculus [1]) [°C]	Immobility time (Mus musculus [2]) [s]	Temperature change (Mus musculus [3]) [°C]	Temperature change (Mus musculus [4]) [°C]	Immobility time (Mus musculus [5]) [s]	No. of escape failures (Rattus norvegicus [6])	Immobility time (Mus musculus [9]) [s]	No. of escape failures (Rattus norvegicus [10])	Temperature change (Mus musculus [11]) [°C]	Temperature change (Mus musculus [12]) [°C]	Temperature change (Mus musculus [13]) [°C]	Temperature change (Mus musculus [14]) [°C]	Temperature change (Mus musculus [15]) [°C]	Immobility time (Mus musculus [16]) [s]
COc1ccccc1N1CCN(CCC(O)c2csc3ccccc23)CC1 (stereo unspecified)	18.1	35	20	-0.4	145	-1.16	-0.63	101.8	2.3	<99.5	8	-1.3	-1.23	-1.38	-2.2	-1.6	143.5
